Patent publication US20230105693A1, “ANTIMICROBIAL COMPOSITIONS” (Firmenich SA, priority 2020, published 2023)
Like-named read-outs stand apart in the source and are kept apart here.

Key:
[1] = Equivalent alkane carbon number (EACN) in model microemulsion system; assay type: physicochemical; details: C10E5/water/isopropyl myristate model system, 3% wt perfume ingredient
Method: EACN values provide information on polarity and surface activity of apolar ingredients. Tchakalova and Fieber (J. of Surfactants and Detergents, 2012, 15(2):167-177) classified perfume ingredients based on values of EACNmix, the EACN of a mixture consisting of a test perfume ingredient and a reference oil (isopropyl myristate). The same model system and method were used to measure the EACN values of perfume ingredients with antimicrobial activities. Different perfume ingredients were added to the model microemulsion system shown in Table 1, in which the nonionic pentaethylene glycol mono n-decyl ether (C10E5) was used as surfactant. Phase transition temperatures of the system from Winsor I to Winsor III, and from Winsor III to Winsor II were determined using a water bath. Alkanes with different alkane carbon numbers (octane, decane, dodecane and hexadecane) were used to establish a linear correlation curve between EACN and the PIT, which is the average of the transitions from Winsor I to Winsor III, and from Winsor III to Winsor II, respectively. EACNmix was then calculated based on the linear relationship and the measured PIT for systems containing different perfume ingredients. The EACN of the pure perfume ingredient was calculated based on the molar ratio of the tested PRMs in the oil phase using following equation: […]
wherein n and nref are the molar fractions of tested perfume ingredient and the reference ingredient (i.e., isopropyl myristate) in the oil phase, respectively.

[2] = physchem; assay type: physicochemical
Method: The partition coefficient (P) is defined as the ratio of the concentrations (C) to the equilibrium of a dissolved and highly diluted substance in a biphasic system consisting of two almost immiscible solvents.
In the case of n-octanol and water:
The partition coefficient P is the quotient of two concentrations, it is generally indicated in its logarithmic form, base 10 (LogP).
The log P values of different perfume ingredients were measured using standard high performance liquid chromatography method, according to the reference (OECD, guideline No. 117, adopted on 13 Apr. 2004, Partition coefficient (n-octanol-water), High Performance Liquid Chromatography (HPLC) Method).

[3] = system: Escherichia coli ATCC 10536; test: Robotic BCT test of perfume ingredients in model surfactant bases; assay type: cell-based; details: for Log reduction (Log CFU/mL) Base 3: Base 3: SLES 1.5%, coco-glucoside 0.75%; for Log reduction (Log CFU/mL) Base 4: Base 4: SLES 2.25%, sodium xylene sulfonate 3%; for log reduction at 0.5 %: Escherichia coli, ATCC10536, 45 s
Method: The surfactant bases tested included 1) sodium lauryl ether sulfate (SLES) and cocamidopropyl betaine (CAPB) at 3:1 mass ratios; 2) SLES, CAPB and coco-glucoside at 2:1:1 mass ratios. Test samples were prepared by mixing perfume ingredients with the surfactant bases and vigorously stirred for 24 hrs. Concentration of perfume ingredients in the bases was 0.5% wt. Samples with transparent appearance were selected for antimicrobial testing.
Antimicrobial efficacy was tested against a representative Gram-negative bacterial strain, Escherichia coli ATCC 10536, using robotic bacteria contact time (BCT) test based on European standard EN-1276 and EP2787827(B1).
Preparation of screening plate and dilution plate: Aliquots (270 µl) of compositions were dispensed into the wells of a 96-well microtiter plate (MTP) along two columns (B1-H1, and B7-H7), and 270 µl of MilliQ water was added to well A1 and A7 as the control samples. This MTP was labelled as the “Screening plate”. In another MTP, labelled as the “Dilution plate”, 270 µL of Dey-Engley (D/E) neutralizing solution was added to column 1 and column 7. 270 µl of tryptone diluent solution was added to columns 2-6 and columns 8-12 of the Dilution MTP by a Hamilton robotic liquid handling station.
BCT test & neutralization & dilution: Bacterial stock (30 µl) was then added to columns 1 of the ‘Screening plate’ and mixed by a Hamilton robotic liquid handling station. After a contact time of 45 seconds, 30 µl of the mixtures in column 1 were transferred into the corresponding wells of column 1 of the ‘Dilution plate’. After neutralizing for 5 minutes in the D/E neutralizing solution, 30 µl of the neutralized mixtures were transferred from column 1 to column 2 of the Dilution MTP and mixed, followed by transferring 30 µl of the mixtures from column 2 into column 3. This process was repeated serially diluting the bacteria suspensions across the plate to column 6. Bacterial stock (30 µl) was then added to columns 7 of the ‘Screening plate’ and mixed by a Hamilton robotic liquid handling station. After a contact time of 45 seconds, 30 µl of the mixtures in column 7 were transferred into the corresponding wells of column 7 of the ‘Dilution plate’. After neutralizing for 5 minutes in the D/E neutralizing solution, 30 µl of the mixtures were transferred from column 7 to column 8 of the Dilution MTP and mixed, followed by transferring further 30 µl mixtures from column 8 into column 9. This process was repeated serially diluting the bacteria suspensions across the plate to column 12.
Plating: 30 µl volumes from each well in the Dilution MTP were transferred onto four Tryptone Soya Agar (TSA) plates. The TSA plates were allowed to stand for about two hours so that the 30 µl inocula spots could dry and the plates were then inverted and incubated overnight at 37° C. for 24 hours. After incubation, colonies were counted.
Calculating log reduction: Select the dilutions with colony counts, and calculate the viable cell counts (CFU/mL) of mixture in ‘Screening plate’, and log reduction against the control MilliQ sample was calculated.

[4] = system: E. coli ATCC 10536; test: Bacterial contact time (BCT) test of perfume ingredients in 20% ethanol solution (EN-1276 based); assay type: cell-based, Escherichia coli; details: 20% EtOH, 45 s
Method: Bacterial suspensions of E. coli ATCC 10536 were prepared for antimicrobial testing as follows. Stock cultures stored at -80° C. were sub-cultured onto Tryptic Soy Agar (TSA) plate, and incubated at 37° C. for 24 h to obtain single colonies. Single colonies of the primary cultures were streaked onto TSA plates and incubated at 37° C. for 24 h to prepare the secondary cultures. Single colonies of secondary cultures were inoculated into 50 mL of Tryptic Soy broth (TSB), incubated at 37° C. 180 rpm for 18 h. Aliquots (0.5 ml) of the 18 h culture were inoculated into 50 ml of fresh TSB, and incubated at 37° C. 180 rpm for 2- 3 hours. When the OD600 nm value of the broth reached 1-2, cells were harvested by centrifugation at 5,000 rpm for 10 min, and then resuspended in the same fresh broth media to achieve the target level of 1-5 × 10^8 colony forming unit (CFU)/mL. This suspension was used for further antimicrobial tests.
Unless indicated otherwise, log reduction testing according to the present invention is determined in accordance with the following method.
Bacterial contact time (BCT) test based on European standard EN-1276 was used to determine dose dependent bactericidal activity of perfume ingredients in 20% ethanol solutions.
Perfume ingredients of various concentrations (doses) were prepared in 40% ethanol solutions. Eleven replicates of each sample were added into 96-well microtiter plates (120 µl per well) in column 1-11 of one row, with row B as the control sample of the ethanol solution. Then, 120 µl of cell suspension at a concentration of approximately 1-5 × 10^8 CFU/ML (as prepared above) were added to each well of the microtiter plate. A specified contact time (45 s) was allowed for target bacterial strains. At the end of the contact time, serial dilutions were prepared in 96 well plates with growth media: 3 times of 1 in 10 dilutions and followed by 17 times of 1 in 2 dilutions. Each plate was sealed and incubated at 37° C. under agitation (180 rpm). After incubation, turbidity of the wells (OD 600 nm) was recorded by Tecan microplate reader. Turbid cells were regarded as positive growth of viable cells. The total number of viable cells (log CFU/mL) for each sample was calculated. And the log reduction for each test composition at the final concentration (dose) was calculated against the control sample of the 20% ethanol solution.
Table 20 show the bactericidal dose related effect (log reduction) and calculated effect fraction of the Mixture C and compositions against E. coli ATCC 10536. Stock of compositions were prepared in 100% ethanol, then diluted in MilliQ water to obtain 2 × final concentration in 40% ethanol. BCT tests were conducted on samples against E. coli for a contact time of 45 s.

[5] = n-octanol/water, HPLC method, read-out: Log P
[6] = 0.5% perfume ingredient, CAPB 0.75%, contact 45 s
[7] = 0.5% perfume ingredient, Base 1: SLES 1.875%, CAPB 0.625%, contact 45 s, read-out: Log reduction in Base 1 (Log CFU/mL)
[8] = 0.5% perfume ingredient, Base 2: SLES 2.25%, CAPB 0.75%, contact 45 s, read-out: Log reduction (Log CFU/mL) Base 2
[9] = model base 1, table by functional group, read-out: Log reduction in Base 1 (Log CFU/mL)

## CCC(C)(O)CCCC(C)C (racemic) [(+-)-3,7-dimethyl-3-octanol]
[1]
  EACN: -4.83
[2]; [5]
  chromatographic logP: 3.78
[3]; [6]
  Log reduction (Log CFU/mL) Base 3: 0.3 Log CFU/mL
  Log reduction (Log CFU/mL) Base 4: 0.4 Log CFU/mL
[3]; [7]
  log reduction at 0.5 %: 1.9 ± 1.6
[3]; [8]
  log reduction at 0.5 %: 0

## CCCc1cccc(O)c1 [3-propylphenol]
[1]
  EACN: <-29.09
[2]; [5]
  chromatographic logP: 2.1
[3]; [7]
  log reduction at 0.5 %: > 5.5
[3]; [9]
  log reduction at 0.5 %: > 5.5

## CC1=CC[C@H]([C@H](C)CCO)CC1 (single isomer, unassigned)
[1]
  EACN: -34.57
[2]
  Log P: 3.46

## CC(C)(O)CCc1ccccc1 [2-methyl-4-phenyl-2-butanol]
[1]
  EACN: -24.94
[2]; [5]
  chromatographic logP: 2.69
[3]; [7]
  log reduction at 0.5 %: -0.4

## CC(C)=CCC/C(C)=C/CO [(E)-3,7-dimethyl-2,6-octadien-1-ol]
[4]; dose 0.040% w/v
  Effect fraction: -0.020
  Log reduction: -0.175
[4]; dose 0.050% w/v
  Effect fraction: 0.130
  Log reduction: 0.909
[4]; dose 0.055% w/v
  Effect fraction: 0.350
  Log reduction: 2.474
[4]; dose 0.060% w/v
  Effect fraction: 0.660
  Log reduction: 4.760
[4]; dose 0.070% w/v
  Effect fraction: 1.000
  Log reduction: 7.160
[1]
  EACN: -28.65
[3]; [6]
  Log reduction (Log CFU/mL) Base 3: 4.2 Log CFU/mL
  Log reduction (Log CFU/mL) Base 4: Insoluble
[3]; [7]
  log reduction at 0.5 %: > 5.4
[3]; [8]
  log reduction at 0.5 %: 0.5
[3]; [9]
  log reduction at 0.5 %: > 5.5

## CC(CCO)CCc1ccccc1 (racemic) [(+-)-3-methyl-5-phenyl-1-pentanol]
[1]
  EACN: -37.05
[2]
  chromatographic logP: 3
[3]; [6]
  Log reduction (Log CFU/mL) Base 3: 2.9 Log CFU/mL
  Log reduction (Log CFU/mL) Base 4: 2.8 Log CFU/mL
[3]; [7]
  log reduction at 0.5 %: 5 ± 2.1
[3]; [8]
  log reduction at 0.5 %: 0
[3]; [9]
  log reduction at 0.5 %: 4.3

## CCOC(=O)/C=C/c1ccccc1 [Ethyl(E)-3-phenyl-2-propenoate]
[2]; [5]
  chromatographic logP: 3
[3]; [6]
  Log reduction (Log CFU/mL) Base 3: Insoluble
  Log reduction (Log CFU/mL) Base 4: Insoluble
[3]; [7]
  log reduction at 0.5 %: 1.9 ± 1
[3]; [8]
  log reduction at 0.5 %: 0

## C=C/C(C)=C\CC1OC1(C)C (racemic) [(+-)-(2,2-dimethyl-3-[(2Z)-3-methyl-2,4-pentadien-1-yl]oxirane OR (+-)-(2,2-dimethyl-3-[(2E)-3-methyl-2,4-pentadien-1-yl]oxirane]
[1]
  EACN: -1.45
[2]
  Log P: 2.92

## COC(=O)c1ccccc1N [methyl 2-aminobenzoate]
[1]
  EACN: -22.57
[2]; [5]
  chromatographic logP: 1.83

## CCC/C=C/COC(C)=O [(E)-2-hexenyl acetate]
[1]
  EACN: 1.12
[2]; [5]
  chromatographic logP: 2.59

## N#C/C=C/c1ccccc1 [(E)-3-phenyl-2-propenenitrile]
[1]
  EACN: -14.36
[2]; [5]
  chromatographic logP: 1.98

## CCCc1ccc(O)c(OC)c1 [2-methoxy-4-propyl phenol]
[1]
  EACN: -34.16
[2]; [5]
  chromatographic logP: 2.39

## CCCCCC1CCC(=O)O1 (racemic) [(+-)-4-nonanolide]
[1]
  EACN: -11.24
[2]; [5]
  chromatographic logP: 2.45

## CC1=C(C=O)C(C)(C)CC=C1 [2,6,6-trimethyl-1,3-cyclohexadiene-1-carbaldehyde]
[1]
  EACN: -6.62
[2]; [5]
  chromatographic logP: 2.57

## CC/C=C\CCCCCO [(Z)-6-nonen-1-ol]
[1]
  EACN: -29.91
[2]
  Log P: 3.4

## CCCCC(CC)CO (stereo not shown) [2-ethyl-1-hexanol]
[4]; dose 0.060% w/v
  Effect fraction: 0.050
  Log reduction: 0.367
[4]; dose 0.065% w/v
  Effect fraction: 0.100
  Log reduction: 0.728
[4]; dose 0.070% w/v
  Effect fraction: 0.290
  Log reduction: 2.052
[4]; dose 0.075% w/v
  Effect fraction: 0.510
  Log reduction: 3.678
[4]; dose 0.080% w/v
  Effect fraction: 0.800
  Log reduction: 5.760
[1]
  EACN: -22.63
[3]; [7]
  log reduction at 0.5 %: 3.6
[3]; [9]
  log reduction at 0.5 %: 3.6

## O=C1CCC[C@H]2[C@@H]1[C@H]1C=C[C@@H]2C1 (racemic) [(1RS,2SR,7RS,8SR)-tricyclo[6.2.1.0^~2,7^~]undec-9-en-3-one OR (1RS,2RS,7S,8SR)-tricyclo[6.2.1.0^~2, 7^~] undec-9-en-3-one]
[1]
  EACN: -5.81
[2]
  Log P: 2.53

## C/C(=C\c1ccc(C)cc1)CO [(2E)-2-methyl-3-(4-methylphenyl)-2-propen-1-ol]
[1]
  EACN: -36.15
[2]; [5]
  chromatographic logP: 2.29
